Reference: ChEMBL document CHEMBL2311297 (Bioorg Med Chem Lett, 2013)
pIC50: −log10 of the molar value. The source made the active and inactive calls. The calls are words filed in the database; no cut-off is given here.

Key:
Daudi = assay: Cytotoxicity against human Daudi cells assessed as growth inhibition after 3 to 5 days by MTT assay
HL-60 = assay: Cytotoxicity against human HL60 cells assessed as growth inhibition after 3 to 5 days by MTT assay
[1] = Binding affinity to 5'-HEX-tagged double standard 22 bp 5'-hexachlorofluoresceine-CACCCGGTCACGTGGCCTACAC-3' (unknown origin) by PAGE analysis
Protein max = Protein max (Homo sapiens, UniProt P61244); assay: Inhibition of His6-tagged Max (151 amino acid residues) (unknown origin) assessed as disruption of Max-Max dimerization by electrophoretic mobility shift assay
[2] = biological target: Myc proto-oncogene protein (Homo sapiens, UniProt P01106); assay: Inhibition of recombinant His6-tagged c-Myc bHLH-ZIP domain (353 to 437 amino acid residues) (unknown origin) assessed as disruption of Myc-Max dimerization at 100 uM by electrophoretic mobility shift assay relative to control
Chain of Myc proto-oncogene protein (P01106 whole entry, the tested form may be a part): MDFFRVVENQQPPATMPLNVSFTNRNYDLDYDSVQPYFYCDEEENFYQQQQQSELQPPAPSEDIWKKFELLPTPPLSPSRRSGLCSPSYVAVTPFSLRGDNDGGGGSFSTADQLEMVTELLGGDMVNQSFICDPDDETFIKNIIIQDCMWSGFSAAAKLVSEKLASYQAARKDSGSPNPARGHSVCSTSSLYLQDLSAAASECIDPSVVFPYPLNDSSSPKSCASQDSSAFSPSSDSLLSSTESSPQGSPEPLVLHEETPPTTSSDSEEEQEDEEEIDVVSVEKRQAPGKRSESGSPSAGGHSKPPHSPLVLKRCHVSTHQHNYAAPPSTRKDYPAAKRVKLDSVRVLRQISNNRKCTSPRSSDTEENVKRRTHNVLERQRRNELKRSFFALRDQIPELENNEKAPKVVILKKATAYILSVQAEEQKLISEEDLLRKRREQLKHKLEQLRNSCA

Chain of Protein max (P61244 whole entry, the tested form may be a part): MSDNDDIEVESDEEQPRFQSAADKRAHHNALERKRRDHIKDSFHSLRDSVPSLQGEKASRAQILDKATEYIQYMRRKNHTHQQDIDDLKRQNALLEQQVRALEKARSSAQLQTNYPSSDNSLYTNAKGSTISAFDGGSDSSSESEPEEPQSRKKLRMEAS

Row | Structure (SMILES) | inhibition [2] [%] | also measured
1 | O=C(O)c1ccc(Nc2ccc([N+](=O)[O-])c3nonc23)cc1 | 93 | pIC50 (Daudi): 4.25; pIC50 (HL-60): 3.74; Activity [1]: inactive; pIC50 (Protein max): < 4.00
2 | O=[N+]([O-])c1ccc(N2CCCCC2)c2nonc12 | 10 | 
3 | O=[N+]([O-])c1ccc(NC2CCCCC2)c2nonc12 | 11 | 
4 | O=C(O)CCC(=O)Nc1ccc(Nc2ccccc2-c2ccccc2)c2nonc12 | 17 | 
5 | O=C(O)COCC(=O)Nc1ccc(Nc2ccccc2-c2ccccc2)c2nonc12 | 33 | 
6 | COC(=O)Nc1ccc(Nc2ccccc2-c2ccccc2)c2nonc12 | 0 | 
7 | O=C(Nc1ccc(Nc2ccccc2-c2ccccc2)c2nonc12)C(F)(F)F | 25 | 
8 | O=[N+]([O-])c1ccc(Nc2ccccc2Br)c2nonc12 | 39 | 
9 | O=[N+]([O-])c1ccc(NCc2ccccc2)c2nonc12 | 0 | 
10 | O=[N+]([O-])c1ccc(Nc2ccccc2-c2ccccc2)c2nonc12 | 38 | pIC50 (Daudi): 5.00; pIC50 (HL-60): 4.52

Second part, led by results:

Row | inhibition [2] [%] | Structure (SMILES) | also measured
11 | 0 | COc1ccccc1Nc1ccc([N+](=O)[O-])c2nonc12 | 
12 | 0 | O=[N+]([O-])c1ccc(Nc2ccccc2-c2ccccc2)cc1 | 
13 | 8 | O=C(O)c1ccccc1Nc1ccc([N+](=O)[O-])c2nonc12 | 
14 | 0 | O=C(O)c1cccc(Nc2ccc([N+](=O)[O-])c3nonc23)c1 | 
15 | 2 | O=[N+]([O-])c1ccc(Nc2ccccc2)c2nonc12 | 
16 | 11 | Cc1ccccc1Nc1ccc([N+](=O)[O-])c2nonc12 | 
17 | 13 | O=[N+]([O-])c1ccc(Nc2ccccc2O)c2nonc12 | 
18 | 0 | Cc1ccc(Nc2ccc([N+](=O)[O-])c3nonc23)cc1 | 
19 | 36 | O=[N+]([O-])c1ccc(Oc2ccccc2-c2ccccc2)c2nonc12 | 
20 | 20 | O=[N+]([O-])c1ccc(Nc2cccc(-c3ccccc3)c2)c2nonc12 | 
21 | 28 | O=[N+]([O-])c1ccc(Nc2ccc(-c3ccccc3)cc2)c2nonc12 | 
22 | 2 | CC(=O)Nc1ccc(Nc2ccccc2-c2ccccc2)c2nonc12 | 
